Results from ChEMBL document CHEMBL3817761, “Chenopodium album metabolites act as dual topoisomerase inhibitors and induce apoptosis in the MCF7 cell line” (Medchemcomm, 2016).
Activity calls are given as the source filed them. The calls are words filed in the database; no cut-off is given here.

What was measured:
MCF7 [1] = assay: Induction of mitochondrial membrane depolarization in human MCF7 cells assessed as ratio of red to green fluorescence at 11.33 uM after 48 hrs by JC-1 staining based FACS assay (reference value: 9.1); format: functional
MCF7 [2] = assay: Cell cycle arrest in human MCF7 cells assessed as accumulation at G2/M phase at 11.33 uM after 48 hrs by propidium iodide staining based flow cytometry (reference value: 19.8 %); format: functional
MCF7 [3] = assay: Induction of apoptosis in human MCF7 cells assessed as viable cells at 11.33 uM after 24 hrs by Annexin-V-FITC/propidium iodide staining based flow cytometry (reference value: 95.9 %); format: functional; details: MCF7, 24 h, read-out: Activity
[4] = molecular target: T1, DNA topoisomerase 1 (Homo sapiens) (UniProt P11387); assay: Inhibition of CPT mediated formation of topoisomerase 1-supercoiled pBS (SK+) DNA complex in human MCF7 cells at 10 uM preincubated for 2 hrs followed by CPT addition measured after 4 to 12 hrs by immunoband depletion assay; format: cell-based
T1 sequence (whole entry): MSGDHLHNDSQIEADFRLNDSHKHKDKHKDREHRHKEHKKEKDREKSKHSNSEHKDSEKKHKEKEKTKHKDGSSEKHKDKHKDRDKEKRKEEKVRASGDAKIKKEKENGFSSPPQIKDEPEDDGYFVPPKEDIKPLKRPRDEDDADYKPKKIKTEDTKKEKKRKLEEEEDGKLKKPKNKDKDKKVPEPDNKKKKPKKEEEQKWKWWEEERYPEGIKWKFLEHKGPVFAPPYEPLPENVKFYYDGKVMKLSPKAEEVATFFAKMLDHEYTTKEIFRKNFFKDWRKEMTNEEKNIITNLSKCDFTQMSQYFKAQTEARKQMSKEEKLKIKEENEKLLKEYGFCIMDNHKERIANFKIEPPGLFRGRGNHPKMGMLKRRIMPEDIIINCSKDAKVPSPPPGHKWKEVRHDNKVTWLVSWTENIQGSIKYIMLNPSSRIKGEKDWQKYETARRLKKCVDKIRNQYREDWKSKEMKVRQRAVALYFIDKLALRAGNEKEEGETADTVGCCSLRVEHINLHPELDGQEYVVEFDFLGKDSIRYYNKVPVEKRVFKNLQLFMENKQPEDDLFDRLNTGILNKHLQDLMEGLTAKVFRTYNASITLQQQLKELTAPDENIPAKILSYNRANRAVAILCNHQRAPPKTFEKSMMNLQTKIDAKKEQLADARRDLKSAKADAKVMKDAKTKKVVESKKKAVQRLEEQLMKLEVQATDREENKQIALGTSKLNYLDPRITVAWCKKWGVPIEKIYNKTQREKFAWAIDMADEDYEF

[5] = molecular target: DNA topoisomerase 2-alpha (Homo sapiens) (UniProt P11388); assay: Poisoning activity at topoisomerase 2 in human MCF7 cells at 10 uM after 12 hrs by immunoband depletion assay; format: cell-based
MCF7 [6] = assay: Induction of mitochondrial membrane depolarization in human MCF7 cells at 11.33 uM by JC-1 staining based FACS assay; format: functional, cell-based; details: TDE = time-dependent effect
[7] = molecular target: T1, DNA topoisomerase 1 (Homo sapiens); assay: Inhibition of human recombinant topoisomerase 1-mediated relaxation of supercoiled pBS (SK+) DNA at 60 uM after 30 mins by ethidium bromide staining based agarose gel electrophoresis
[8] = Cytotoxicity against human SKBR3 cells assessed as reduction in cell viability after 72 hrs by MTT assay; format: functional, cell-based; details: SK-BR-3, 72 h
[9] = Cytotoxicity against human HCT116 cells assessed as reduction in cell viability after 72 hrs by MTT assay; format: functional, cell-based; details: HCT-116, 72 h
MCF7 [10] = assay: Induction of apoptosis in human MCF7 cells assessed as caspase 7 cleavage at 11.33 uM after 48 hrs by Western blot analysis; format: functional, cell-based
[11] = molecular target: T1, DNA topoisomerase 1 (Homo sapiens); assay: Poisoning activity at human recombinant topoisomerase 1 assessed as stabilization of enzyme-supercoiled pBS (SK+) DNA complex at 60 uM after 30 mins by ethidium bromide staining based agarose gel electrophoresis
[12] = molecular target: DNA topoisomerase 2-alpha (Homo sapiens) (UniProt P11388); assay: Inhibition of ETO mediated formation of topoisomerase 2-supercoiled pBS (SK+) DNA complex in human MCF7 cells at 10 uM preincubated for 2 hrs followed by ETO addition measured after 4 to 12 hrs by immunoband depletion assay; format: cell-based
[13] = Cytotoxicity against human MOLT4 cells assessed as reduction in cell viability after 72 hrs by MTT assay; format: functional, cell-based; details: MOLT-4, 72 h
[14] = molecular target: T1, DNA topoisomerase 1 (Homo sapiens); assay: Poisoning activity at topoisomerase 1 in human MCF7 cells at 10 uM after 12 hrs by immunoband depletion assay; format: cell-based
[15] = molecular target: DNA topoisomerase 2-alpha (Homo sapiens) (UniProt P11388); assay: Poisoning activity at human recombinant topoisomerase 2 assessed as stabilization of enzyme-supercoiled pBS (SK+) DNA complex at 60 uM after 30 mins by ethidium bromide staining based agarose gel electrophoresis
MCF7 [16] = assay: Induction of apoptosis in human MCF7 cells assessed as necrotic cells at 11.33 uM after 48 hrs by Annexin-V-FITC/propidium iodide staining based flow cytometry (reference value: 0.4 %); format: functional
[17] = molecular target: DNA topoisomerase 2-alpha (Homo sapiens) (UniProt P11388); assay: Inhibition of human recombinant topoisomerase 2-mediated relaxation of supercoiled pBS (SK+) DNA at 60 uM after 30 mins by ethidium bromide staining based agarose gel electrophoresis
MCF7 [18] = assay: Induction of apoptosis in human MCF7 cells assessed as PARP-1 cleavage at 11.33 uM after 48 hrs by Western blot analysis; format: functional, cell-based
MCF7 [19] = assay: Induction of apoptosis in human MCF7 cells assessed as caspase 9 cleavage at 11.33 uM after 48 hrs by Western blot analysis; format: functional, cell-based
MCF7 [20] = assay: Cell cycle arrest in human MCF7 cells assessed as accumulation at G0/G1 phase at 11.33 uM after 48 hrs by propidium iodide staining based flow cytometry (reference value: 59.7 %); format: functional
MCF7 [21] = assay: Cytotoxicity against human MCF7 cells assessed as reduction in cell viability after 72 hrs by MTT assay; format: functional, cell-based; details: MCF7, 72 h
MCF7 [22] = assay: Cell cycle arrest in human MCF7 cells assessed as accumulation at S phase at 11.33 uM after 24 hrs by propidium iodide staining based flow cytometry (reference value: 24.5 %); format: functional
MCF7 [23] = assay: Induction of apoptosis in human MCF7 cells assessed as PARP-1 cleavage at 8.27 uM after 48 hrs by Western blot analysis; format: functional, cell-based
MCF7 [24] = assay: Induction of mitochondrial membrane depolarization in human MCF7 cells at 8.27 uM after 48 hrs by JC-1 staining based FACS assay (reference value: 9.9 %); format: functional
MCF7 [25] = assay: Induction of ROS accumulation in human MCF7 cells at 8.27 uM after 12 hrs by CM-H2-DCFDA probe based flow cytometry (reference value: 5.1 %); format: functional
MCF7 [26] = assay: Cell cycle arrest in human MCF7 cells assessed as accumulation at S phase at 8.27 uM after 48 hrs by propidium iodide staining based flow cytometry (reference value: 20.6 %); format: functional
MCF7 [27] = assay: Induction of apoptosis in human MCF7 cells assessed as early apoptotic cells at 8.27 uM after 48 hrs by Annexin-V-FITC/propidium iodide staining based flow cytometry (reference value: 0.4 %); format: functional
MCF7 [28] = assay: Induction of mitochondrial membrane depolarization in human MCF7 cells at 8.27 uM by JC-1 staining based FACS assay; format: functional, cell-based; details: TDE = time-dependent effect

Chain of DNA topoisomerase 2-alpha (Homo sapiens) (P11388 whole entry): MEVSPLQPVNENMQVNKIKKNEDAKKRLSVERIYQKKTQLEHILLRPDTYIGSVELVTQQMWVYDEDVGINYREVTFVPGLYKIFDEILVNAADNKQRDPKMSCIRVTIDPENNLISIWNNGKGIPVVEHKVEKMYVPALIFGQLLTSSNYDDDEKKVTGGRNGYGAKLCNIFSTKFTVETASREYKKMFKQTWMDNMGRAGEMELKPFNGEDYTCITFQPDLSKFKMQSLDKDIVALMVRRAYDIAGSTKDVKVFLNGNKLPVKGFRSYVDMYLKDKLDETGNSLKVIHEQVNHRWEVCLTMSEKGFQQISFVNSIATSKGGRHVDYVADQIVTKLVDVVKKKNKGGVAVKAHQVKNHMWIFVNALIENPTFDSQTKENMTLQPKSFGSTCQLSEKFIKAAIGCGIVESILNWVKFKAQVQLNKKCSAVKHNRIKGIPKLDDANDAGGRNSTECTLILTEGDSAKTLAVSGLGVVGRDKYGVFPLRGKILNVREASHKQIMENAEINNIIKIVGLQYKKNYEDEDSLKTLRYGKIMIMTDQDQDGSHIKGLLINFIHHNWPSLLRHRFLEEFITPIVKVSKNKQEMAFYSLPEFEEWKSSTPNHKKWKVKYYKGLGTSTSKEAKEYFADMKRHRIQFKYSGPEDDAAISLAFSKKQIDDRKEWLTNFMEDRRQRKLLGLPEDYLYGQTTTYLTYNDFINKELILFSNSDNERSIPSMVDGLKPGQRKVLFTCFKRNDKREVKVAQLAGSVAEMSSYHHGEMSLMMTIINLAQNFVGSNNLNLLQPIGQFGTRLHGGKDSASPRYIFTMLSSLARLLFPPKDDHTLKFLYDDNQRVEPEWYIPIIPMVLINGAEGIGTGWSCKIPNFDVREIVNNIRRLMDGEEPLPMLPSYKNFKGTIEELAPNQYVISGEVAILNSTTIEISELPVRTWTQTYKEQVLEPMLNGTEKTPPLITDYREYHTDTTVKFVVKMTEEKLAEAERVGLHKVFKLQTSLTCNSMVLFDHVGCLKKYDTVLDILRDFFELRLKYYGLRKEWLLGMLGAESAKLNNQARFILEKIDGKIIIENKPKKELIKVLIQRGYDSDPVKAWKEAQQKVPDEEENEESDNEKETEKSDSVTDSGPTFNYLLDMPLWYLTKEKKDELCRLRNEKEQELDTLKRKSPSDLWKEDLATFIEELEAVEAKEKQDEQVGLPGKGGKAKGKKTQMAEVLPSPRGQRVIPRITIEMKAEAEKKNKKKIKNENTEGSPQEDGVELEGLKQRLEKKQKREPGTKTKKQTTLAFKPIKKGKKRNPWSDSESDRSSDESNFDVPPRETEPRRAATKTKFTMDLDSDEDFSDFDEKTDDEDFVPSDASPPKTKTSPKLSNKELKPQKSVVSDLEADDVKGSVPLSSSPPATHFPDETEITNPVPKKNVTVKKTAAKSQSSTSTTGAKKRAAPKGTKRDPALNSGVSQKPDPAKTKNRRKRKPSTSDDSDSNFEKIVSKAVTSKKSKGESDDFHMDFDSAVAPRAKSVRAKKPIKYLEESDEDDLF

| Structure (SMILES) | inhibition [4] | Activity [5] | inhibition [7] | IC50 [8] | IC50 [9] | Activity [11] | inhibition [12] | IC50 [13] | Activity [14] | Activity [15] | inhibition [17] | IC50 (MCF7 [21]) | other results |
| --- | --- | --- | --- | --- | --- | --- | --- | --- | --- | --- | --- | --- | --- |
| CC1(C)CC[C@]2(C(=O)O)CC[C@]3(C)C(=CC[C@@H]4[C@@]5(C)CC[C@H](O[C@@H]6O[C@H](C(=O)O)[C@@H](O)[C@H](O)[C@H]6O)C(C)(C)[C@@H]5CC[C@]43C)[C@@H]2C1 | Active | inactive | Active | 11.9 µM | 18 µM | inactive | Active | 13.3 µM | inactive | inactive | Active | 11.3 µM | Ratio (MCF7 [1]): 0.821; Activity (MCF7 [2]): 17%; viability at 11.33 µM (MCF7 [3]): 87.5%; Activity (MCF7 [6]): tde; Activity (MCF7 [10]): Active; Activity (MCF7 [16]): 0.8%; Activity (MCF7 [18]): Active; Activity (MCF7 [19]): Active; Activity (MCF7 [20]): 35.1%; Activity (MCF7 [22]): 29.7% |
| C[C@@H]1CC[C@@]2(OC1)O[C@H]1C[C@H]3[C@@H]4CC[C@H]5C[C@@H](O[C@@H]6O[C@H](CO)[C@H](O[C@@H]7O[C@H](CO)[C@@H](O)[C@H](O[C@@H]8OC[C@@H](O)[C@H](O)[C@H]8O)[C@H]7O[C@@H]7O[C@H](CO)[C@@H](O)[C@H](O)[C@H]7O)[C@H](O)[C@H]6O)CC[C@]5(C)[C@H]4CC[C@]3(C)[C@H]1[C@@H]2C [DEGALACTOTIGONIN] | Active | inactive | Active | 9.33 µM | 15.4 µM | inactive | Active | 11.7 µM | inactive | inactive | Active | 8.27 µM | Activity (MCF7 [23]): Active; Activity (MCF7 [24]): 69.6%; Activity (MCF7 [25]): 50.5%; Activity (MCF7 [26]): 40.1%; Activity (MCF7 [27]): 98.7%; Activity (MCF7 [28]): tde |
